Experimental data published in US20220211860A1, “PEPTIDE DERIVATIVES AND CONJUGATES THEREOF FOR TREATING CANCER” (priority 2019, published 2022).

How the values were obtained:
MDA-MB-231 = assay: Uptake after silencing LHRH-R gene in MDA-MB-231; format: cell-based, human; conditions: MDA-MB-231, LHRH-R siRNA, 1 μM, 18 h
Protocol: FIGS. 10A and 10B: Uptake of LD5-me-vc-PABC-MMAE (LM) after silencing LHRH-R in MDA-MB-231 cells. The cells were treated with LHRH-R siRNA and co-transfected with fluorescent labelled siRNA negative control as transfection efficiency signal (FAM-transfection control). LHRH-R negative control refers to MDA-MB-231 cells that were not transfected with LHRH-R siRNA and FAM-transfection control. (A) Silenced LHRH-R cells and negative control cells were treated with LM (1 μM) for 18 h and LM signal was detected by immunocytochemistry with specific LHRH binding of primary antibody labelled by Rhodamine-conjugated secondary antibody. Immunocytochemical images were captured by LEICA SPE2 confocal LSM. (B) The LM signal intensity in both silenced LHRH-R and negative control was measured by Fiji J software. […] The data was analysed by unpaired t-test with Welch's correction (**** p<0.0001). Error bars are standard deviations (STDV), n=8 (3 independent repeats).
To further examine the role of LHRH-R in the uptake of LD5-me-vc-PABC-MMAE, LHRH-R expression was blocked by silencing their gene in MDA-MB-231 (TNBC cell model). This study was performed by co-transfection of siRNAs (RNAi-Mate transfection reagent and siRNA, GNRHR-homo-2242, GNRHR-homo-2701, and scrambled RNA were from GenePharma) and a fluorescently labelled negative control siRNA (FAM transfection efficiency control was from GenePharma).

[1] = In vitro stability (release of free MMAE, LC/MS), cell culture media; format: in vitro ADME; conditions: c-media, 1 μM, 37° C., 10 days
Protocol: FIG. 11: Stability of LHRHD-(mc-vc-PABC)-MMAE (i.e. LD5-mc-vc-PABC-MMAE) in human plasma, mouse plasma, and cell culture media (c-media). The stability was measured based on the presence of free MMAE detected in the samples by LC-MS at each time point relative to time 0. Error Bars are standard deviations (STDV), p>0.05 and n=9 (mean is calculated from samples in triplicate in 3 independent experiments).
The metabolic stability of LD5-(mc-vc-PABC)-MMAE was investigated in cell culture media (c-media), human and mouse plasma. An LC/MS method was developed to detect both free MMAE and the presence of any degraded species from the whole construct, LD5-(mc-vc-PABC)-MMAE. To evaluate the stability of the valine-citrulline linkage, LD5-(mc-vc-PABC)-MMAE at 1 μM was incubated in c-media, human and mouse plasma at 37° C. for a period of 10 days. Aliquots were taken at pre-determined time intervals (t=0, 1, 2, 4, 7, 10 days) and analysed by LC/MS for the release of free MMAE.

SMILES: CCNC(=O)[C@@H]1CCCN1C(=O)[C@H](CCCNC(=N)N)NC(=O)[C@H](CC(C)C)NC(=O)[C@@H](CCCCNC1CC(=O)N(CCCCCC(=O)N[C@H](C(=O)N[C@@H](CCCNC(N)=O)C(=O)Nc2ccc(COC(=O)N(C)[C@H](C(=O)N[C@H](C(=O)N(C)[C@@H]([C@@H](C)CC)[C@@H](CC(=O)N3CCC[C@H]3[C@H](OC)[C@@H](C)C(=O)N[C@H](C)[C@@H](O)c3ccccc3)OC)C(C)C)C(C)C)cc2)C(C)C)C1=O)NC(=O)[C@H](Cc1ccc(O)cc1)NC(=O)[C@H](CO)NC(=O)[C@H](Cc1c[nH]c2ccccc12)NC(=O)[C@H](Cc1c[nH]cn1)NC(=O)[C@@H]1CCC(=O)N1 (some centres unmarked) [LD5-mc-vc-PABC-MMAE]
- uptake after silencing the LHRH-R gene (MDA-MB-231): significantly reduced
- total drug released as MMAE [1]: less than 3%
